Our source for the Kd values is PubChem BioAssay AID1648 (Sanford-Burnham Center for Chemical Genomics, 2009).

The source made the active and inactive calls. No rule for the calls is given here. Residues, ends and D or L forms follow the SMILES beside them. Bounds are passed on as bounds.

In the experiment the target is Serine/threonine-protein kinase mTOR (Homo sapiens) (UniProt P42345). Put plainly: mTOR FRB domain ligand binding – biophysical, NMR (AID 1648). The following applies: NMR binding to FRB domain, chemical shift.
Chain of Serine/threonine-protein kinase mTOR (Homo sapiens) (P42345 2015-2114): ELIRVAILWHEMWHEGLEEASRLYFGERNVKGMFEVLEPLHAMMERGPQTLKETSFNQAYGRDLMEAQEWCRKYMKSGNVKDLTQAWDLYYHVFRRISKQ

As usually defined, the Kd is the free concentration of one partner at which half of the binding sites on the other are occupied at equilibrium, for simple one-to-one binding.

For the compound `CC(=O)O[C@@H]1c2c(ccc3ccc(=O)oc23)OC(C)(C)[C@@H]1OC(=O)CC(C)C`, the Kd was > 4 mM (inactive).
As to `Cc1nnc(SCc2ccccc2)[nH]c1=O`, the Kd was > 4 mM (inactive).
In the case of `CC(=O)c1cc2c(s1)SCC(=O)N2`, the Kd was > 4 mM (inactive).
The value for `CCOC(=O)CC1Sc2ccccc2NC1=S` (configuration not stated) was > 4 mM (inactive); that for `CCC1=Nc2ccccc2-c2nnc(SC)nc2O1` was > 4 mM (inactive).
The value for `NC(=O)CC1Nc2cccc3cccc(c23)NC1=O` (configuration not stated) was > 4 mM (inactive); that for `Cc1cc(NC(=O)c2c(F)c(F)c(F)c(F)c2F)no1` was > 4 mM (inactive); that for `NCc1ccccc1N1CCCCC1` was > 4 mM (inactive).
With `COc1nc(N2CCOCC2)nc(N)c1[N+](=O)[O-]`, the Kd was > 4 mM (inactive).
As to `Cc1ccc2cc(CO)ccc2n1`, the Kd was > 4 mM (inactive).
As for `CC(C)(C)c1cc(CN)c(C(=O)O)o1`, the Kd was > 4 mM (inactive).
Under `O=C1c2ccccc2C(=O)N1Cc1ccco1` stands > 4 mM (inactive); under `CC(C)n1c(-c2ccncc2)n[nH]c1=S`, > 4 mM (inactive).
Under `O=C(Nc1nnc(C(F)(F)F)s1)c1cccnc1` stands > 4 mM (inactive); under `CCn1cnc(C(=O)NC)c1C(=O)NC`, > 4 mM (inactive); under `CC12CCC3C(CC3(C)C)C(C)(CCC1=O)O2` (configuration not stated), > 4 mM (inactive).
The value for `COC(=O)c1ccccc1N(C)S(C)(=O)=O` was > 4 mM (inactive); that for `Clc1ncc2[nH]cnc2n1` was > 4 mM (inactive).
For `O=C(NCc1ccccc1Cl)c1cnn2cccnc12`, the Kd is > 4 mM (inactive).
As for `NCc1ccc(-c2cccs2)cc1`, the Kd was > 4 mM (inactive).
The value for `CC(=O)OC1CCC2(O)CC1(C)CCC1C2CC1(C)C` (configuration not stated) was > 4 mM (inactive); that for `CC(=O)NC(=S)Nc1cccc(C(=O)O)c1C` was > 4 mM (inactive).
Turning to `Cc1cc(C)c2nncn2n1`, the Kd was > 4 mM (inactive).
Regarding `O=C(NC1CSCC1O)c1ccccc1` (configuration not stated), the Kd was > 4 mM (inactive).
As for `NC(=O)CSc1nnc2ccc(-c3ccco3)nn12`, the Kd is > 4 mM (inactive).
Under `N#Cc1cc(-c2ccccc2)oc1N` stands > 4 mM (inactive); under `Nc1nc(SCc2ccc3c(c2)OCCO3)n[nH]1`, > 4 mM (inactive).
On to `Nc1ccc2c(c1)OCO2`, for which the Kd was > 4 mM (inactive).
Regarding `O=C(c1ccncc1)N1CCN(C(=O)c2ccncc2)CC1`, the Kd was > 4 mM (inactive).
The value for `CC(=O)N[C@@H](CC(=O)O)C(=O)N[C@@H](CCC(=O)O)C(=O)O` (Ac-Asp-Glu-OH) was > 4 mM (inactive); that for `Cn1nc(C(=O)N2CCOCC2)c2ccccc2c1=O` was > 4 mM (inactive); that for `O=C1C2CC=CCC2C(=O)N1c1ccccc1` (configuration not stated) was > 4 mM (inactive).
For `CC[C@@]1(O)C[C@H](O[C@H]2C[C@H](N(C)C)[C@H](O)[C@H](C)O2)c2c(cc3c(c2O)C(=O)c2c(O)cccc2C3=O)[C@H]1C(=O)OC`, the Kd is > 4 mM (inactive).
Turning to `Cn1c(=O)c2[nH]cnc2n(-c2ccccc2)c1=O`, the Kd is > 4 mM (inactive).
Turning to `O=c1[nH]cc(Nc2ccccc2)c(=O)[nH]1`, the Kd was > 4 mM (inactive).
As for `O=C(C1CCC(C(=O)N2CCCC2)CC1)N1CCCC1` (configuration not stated), the Kd is > 4 mM (inactive).
With `O=C(O)CN1CCN(C2CCCC2)CC1`, the Kd was > 4 mM (inactive).
As for `NCc1n[nH]c(=O)c2ccccc12`, the Kd was > 4 mM (inactive).
The value for `O=C(O)Cn1nc(-c2ccccc2)c2ccccc2c1=O` was > 4 mM (inactive).
The value for `Nc1nc(-c2ccccc2)ns1` was > 4 mM (inactive); that for `Cc1cc(C(=O)N2CCN(c3ncccn3)CC2)cs1` was > 4 mM (inactive); that for `CN1CCN(CC(=O)Nc2ccccc2)CC1` was > 4 mM (inactive).
Under `Cc1ccccc1NC(=S)NCCO` stands > 4 mM (inactive); under `CSc1nc(=O)[nH]c2c1CCC2`, > 4 mM (inactive).
For `O=C(O)CSCc1c(F)cccc1Cl`, the Kd is > 4 mM (inactive).
Under `O=C(O)C12CC3CC(CC(O)(C3)C1)C2` stands > 4 mM (inactive).
Regarding `Cc1cc(CN2C(=O)c3ccccc3C2=O)on1`, the Kd was > 4 mM (inactive).
Under `c1ccc(Cc2nn3c(-c4ccncc4)nnc3s2)cc1` stands > 4 mM (inactive); under `COC(=O)[C@]1(C)CCC[C@]2(C)c3ccc(C(C)C)cc3C(=O)CC12` (some centres not stated), > 4 mM (inactive).
Under `CN1C2CC[C@@H]1CC(OC(=O)[C@H](CO)c1ccccc1)C2` (some centres not stated) stands > 4 mM (inactive); under `CN(C)C(=S)Nc1nc2ccccc2s1`, > 4 mM (inactive); under `CN1CC(=O)N=C1N`, > 4 mM (inactive).
The value for `Cc1onc(-c2ccccc2)c1C(=O)Nc1ccncc1` was > 4 mM (inactive); that for `Cc1cccn2cc(CNc3ccccc3)nc12` was > 4 mM (inactive).
In the case of `Cc1ccc(/C=C2/C(=O)N=C(N)N2C)s1`, the Kd was > 4 mM (inactive).
The value for `COCc1cc(C)nc2sc(C(=O)OC)c(N)c12` was > 4 mM (inactive); that for `Cc1cc(C(=O)NC2=NCCS2)cs1` was > 4 mM (inactive); that for `CS/C(N)=C\C(C)=O` was > 4 mM (inactive).
With `CC(=O)OC[C@@]1(O)C[C@@]23CCC4c5ccoc5CC[C@]4(C)C2CC[C@@H]1C3` (some centres not stated), the Kd was > 4 mM (inactive).
The value for `Cc1oc(-c2ccccc2)nc1CCO` was > 4 mM (inactive); that for `O=C(NCc1ccco1)c1ccc(Br)s1` was > 4 mM (inactive).
The value for `O=C(NC1CCS(=O)(=O)C1)c1cccs1` (configuration not stated) was > 4 mM (inactive); that for `Nc1ccc2c(c1)CCC2=O` was > 4 mM (inactive).
In the case of `Nc1ccc(Oc2ccccc2)nc1`, the Kd is > 4 mM (inactive).
As to `COc1cc(O)c2c(c1)C(=O)c1cc(C)cc(O)c1C2=O`, the Kd was > 4 mM (inactive).
Under `O=C1CNc2cc(C(=O)O)ccc2N1` stands > 4 mM (inactive); under `Cn1ccc(C(=O)NC(=S)NN2CCOCC2)n1`, > 4 mM (inactive); under `CC(=O)N1CCN(c2ccc(O)cc2)CC1`, > 4 mM (inactive).
The value for `COc1ccc(C2CC(=O)c3ccc(OC)cc3O2)cc1` (configuration not stated) was > 4 mM (inactive); that for `COc1ccc2c(c1OC)C(=O)N(c1ncn[nH]1)C2` was > 4 mM (inactive); that for `O=C1NC(=O)/C(=C\c2ccncc2)S1` was > 4 mM (inactive).
The value for `Cc1n[nH]c(=S)[nH]c1=O` was > 4 mM (inactive); that for `COc1cc(/C=C2\SC(=S)NC2=O)ccc1O` was > 4 mM (inactive).
Turning to `O=C1NC(=S)N/C1=C\c1ccccc1`, the Kd is > 4 mM (inactive).
Turning to `CN1C(=O)/C(=C\c2ccc[nH]2)SC1=S`, the Kd was > 4 mM (inactive).
Under `O=C(c1ccco1)N1CCN(Cc2cccc(F)c2)CC1` stands > 4 mM (inactive); under `Cc1occc1C(=O)Nc1cc(C(C)(C)C)on1`, > 4 mM (inactive).
